Experimental findings from patent US11939362B2, “Light-inducible protein aggregation system for modeling proteinopathies and neurodegenerative disorders” (UNIVERSITÉ LAVAL, priority 2018, dated 2024) are described below.

The target of one test is T1, LIPA-Empty aggregates (Arabidopsis thaliana, UniProt Q96524, E490G).
T1 construct: expressed in transfected cells; host or cells: HEK-293T
The test is described as follows: Stability/dissociation of LIPA-Empty inclusions after light stimulation (proportion of mCherry-positive cells with inclusions). The format is cell-based, human. As to conditions: HEK-293T cells overexpressing LIPA-Empty, 12 h pre-exposure to blue light, FIG. 17, n=5. The method, then:
HEK-293T cells were seeded on 0.1% gelatin-coated glass coverslips in 24-well plates at a density of 10^4 cells per well (50% confluence) and transiently transfected, 24 h later, with 0.5 μg of LIPA-Empty, 0.6 μg LIPA-α-syn, and 1 μg LIPA-α-syn^ΔNAC per 4 wells, to obtain similar protein expression levels in all conditions. 24 h post-transfection, cells were exposed to blue light (λ=456 nm) using UHP-T-DI-LED series Ultra High-Power LEDs (Prizmatix), at an intensity of 0.8 mW/cm^2, as measured using LPM-100 light power meter (Amuza). […]
(§1) To evaluate the number of mCherry-positive cells with aggregates, a total of 8-10 images per condition were collected using a fluorescence microscope (Nikon Eclipse 80i; 20× objective) and a total of 220-250 cells were quantified by two experimenters, in a blind manner, using ImageJ.
The stability of LIPA-α-syn inclusions in the absence of light stimulation was evaluated by assessing the proportion of mCherry-positive cells having inclusions. […]
The impact of treatment with potent small molecule inhibitors of α-syn aggregation, namely baicalein and myrecitin (Masuda et al., 2006; Zhu et al., 2004), on the stability of LIPA-α-syn inclusions was next evaluated. […]

For a further test, the system named is LIPA-α-syn aggregates. Nature of the test: Stability of LIPA-α-syn inclusions after light stimulation (proportion of mCherry-positive cells with inclusions). The format is cell-based, human. As to conditions: for reduction in the number of cells exhibiting stable LIPA-α-syn inclusions / effect on the proportion of cells with mCherry inclusions: HEK-293T cells overexpressing LIPA-α-syn; for reduction in the number of cells exhibiting stable LIPA-α-syn inclusions: 12 h pre-exposure to blue light, treatment with small molecule inhibitor, FIG. 16, n=5; for effect on the proportion of cells with mCherry inclusions: treatment with inactive small molecules, FIG. 18, n=5. The method, then:
HEK-293T cells were seeded on 0.1% gelatin-coated glass coverslips in 24-well plates at a density of 10^4 cells per well (50% confluence) and transiently transfected, 24 h later, with 0.5 μg of LIPA-Empty, 0.6 μg LIPA-α-syn, and 1 μg LIPA-α-syn^ΔNAC per 4 wells, to obtain similar protein expression levels in all conditions. 24 h post-transfection, cells were exposed to blue light (λ=456 nm) using UHP-T-DI-LED series Ultra High-Power LEDs (Prizmatix), at an intensity of 0.8 mW/cm^2, as measured using LPM-100 light power meter (Amuza). Cells were collected at different time points and fixed in 4% paraformaldehyde for 15 min at room temperature (RT), then washed three times (5 min) with PBS and permeabilized with PBS containing 0.25% Triton X-100, for 30 min at RT. Cells were incubated in blocking buffer solution (PBS containing 5% BSA and 0.1% Triton X-100), for 1 h at RT. Coverslips were incubated with primary antibodies (see Table 1) diluted in blocking buffer solution for 2 h at RT. Coverslips were washed three times in blocking buffer solution (10 min) and appropriate Alexa Fluor® secondary antibodies (Life Technologies, see Table 1) were applied for 1 h at RT. Coverslips were washed twice with PBS (10 min) and counterstained with the fluorescent nuclear stain […] 4,6-diamidino-2-phenylindole (DAPI) (1:5000) for 5 min. Coverslips were then washed twice with PBS (10 min), mounted on Prolong® Gold Antifade (Molecular Probes), and imaged using a Zeiss LSM800 confocal microscope. For thioflavin S (ThS) staining, fixed and permeabilized cells were incubated with 0.05% ThS for 15 min, washed three times with 70% ethanol for 10 min, and then cells were directly counterstained with DAPI. All immunocytochemistry experiments were made with gentle rocking and protected from light.
as §1
The stability of LIPA-α-syn inclusions in the absence of light stimulation was evaluated by assessing the proportion of mCherry-positive cells having inclusions. LIPA aggregates were allowed to form over a 12 h period under light stimulation and cells were collected at different time points up to 48 h post-illumination (FIG. 14).
The impact of treatment with potent small molecule inhibitors of α-syn aggregation, namely baicalein and myrecitin (Masuda et al., 2006; Zhu et al., 2004), on the stability of LIPA-α-syn inclusions was next evaluated. […] Treatment with baicalein or myrecitin had no effect on LIPA-Empty dissociation, confirming the specificity of these inhibitors (FIG. 17).
Previous studies have reported that both β-synuclein (β-syn) and mouse α-syn (ma-syn) overexpression inhibit human α-syn aggregation in cell culture and animal models. To test the impact of these two proteins on LIPA-α-syn inclusion formation, LIPA-α-syn was overexpressed with β-syn or ma-syn in HEK-293T cells, then transiently exposed to blue light for 12 h.

T1 sequence (Q96524 1-498 E490G): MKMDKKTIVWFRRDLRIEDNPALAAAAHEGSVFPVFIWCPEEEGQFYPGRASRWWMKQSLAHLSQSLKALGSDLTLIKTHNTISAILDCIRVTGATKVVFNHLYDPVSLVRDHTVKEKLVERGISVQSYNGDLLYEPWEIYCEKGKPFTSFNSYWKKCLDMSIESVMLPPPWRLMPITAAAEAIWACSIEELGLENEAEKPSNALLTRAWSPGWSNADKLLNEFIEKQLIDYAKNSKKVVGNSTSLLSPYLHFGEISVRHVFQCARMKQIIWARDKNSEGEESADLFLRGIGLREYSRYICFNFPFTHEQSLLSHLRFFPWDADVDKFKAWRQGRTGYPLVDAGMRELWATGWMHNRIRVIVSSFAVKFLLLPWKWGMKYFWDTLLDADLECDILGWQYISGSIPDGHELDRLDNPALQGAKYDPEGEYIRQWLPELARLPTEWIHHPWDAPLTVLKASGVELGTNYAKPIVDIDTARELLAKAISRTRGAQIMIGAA

`O=c1c(O)c(-c2cc(O)c(O)c(O)c2)oc2cc(O)cc(O)c12` [myrecitin]: at LIPA-Empty aggregates, the “effect on LIPA-Empty dissociation” value is recorded as “no effect”. In the test on LIPA-α-syn aggregates, the “reduction in the number of cells exhibiting stable LIPA-α-syn inclusions” value came to 50%.

Turning to `O=c1cc(-c2ccccc2)oc2cc(O)c(O)c(O)c12` [baicalein], at LIPA-Empty aggregates, the “effect on LIPA-Empty dissociation” value is “no effect”. Besides, the “reduction in the number of cells exhibiting stable LIPA-α-syn inclusions” value in the test with LIPA-α-syn aggregates was 50%. Turning to “β-syn: β-synuclein overexpressed in cells; reported to inhibit human α-syn aggregation”, in the test on LIPA-α-syn aggregates (co-overexpression with LIPA-α-syn in HEK-293T cells, blue light 12 h, post-stimulation analysis, FIG. 19 and 21, n=5), the “reduction of the proportion of cells exhibiting mCherry aggregates (LIPA-α-syn inclusions)” value is given as “significant reduction”. As to `O=c1c(-c2ccc(O)cc2)coc2cc(O)ccc12` [daidzein], the “effect on the proportion of cells with mCherry inclusions” value with LIPA-α-syn aggregates was “did not affect”. Same read-out and setting: then `O=C1C[C@@H](c2ccc(O)cc2)Oc2cc(O)cc(O)c21` [naringenin], with “did not affect”.
